This assay deals with T1, ERR1 (also known as ERR-α or ERR-1) (Homo sapiens, UniProt P11474).
T1 sequence (P11474 193-421 limits assumed): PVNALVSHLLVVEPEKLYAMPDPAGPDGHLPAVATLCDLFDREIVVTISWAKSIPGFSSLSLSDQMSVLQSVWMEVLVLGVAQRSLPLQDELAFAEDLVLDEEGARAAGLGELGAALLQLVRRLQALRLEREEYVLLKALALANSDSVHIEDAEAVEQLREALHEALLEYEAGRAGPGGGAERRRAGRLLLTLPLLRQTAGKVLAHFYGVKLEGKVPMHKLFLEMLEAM
Nature of the assay: TR-FRET assay (disruption of co-activator peptide binding to ERR1 LBD). In kind it is biochemical. The conditions noted are these: 6 nM 6His-ERR1LBD, 6 nM GST-SRC-2 peptide; average of 3 independent experiments. In short, it runs like this: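 His-tagged ERR1 ligand-binding domain and GST-labelled SRC-2 peptide, each 6 nM, equilibrated at 25° C for 4-18 h in Tris pH 8/Hepes/KCl/DTT/delipidated BSA buffer. Compound-induced loss of co-activator binding read as Eu cryptate→XL665 energy transfer; values from hyperbolic curve fits averaged over 3 independent runs.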
In general terms: TR-FRET usually uses a lanthanide donor and a delayed reading to cut background.
Consider `O=C1S/C(=C\c2ccc3c(cnn3Cc3ccc(Cl)cc3C(F)(F)F)c2)C(=O)N1[C@@H]1CNC[C@H]1O` (relative stereo) [Compound 316, (5Z)-5-({1-[4-Chloro-2-(trifluoromethyl)benzyl]-1H-indazol-5-yl}methylidene)-3-[trans-4-hydroxypyrrolidin-3-yl]-1,3-thiazolidine-2,4-dione], for which the EC50 (usually the midpoint of the concentration-response curve) was 36 nM.

`O=C(O)C(Cc1c[nH]cn1)N1C(=O)S/C(=C\c2ccc3c(cnn3Cc3ccc(Cl)cc3C(F)(F)F)c2)C1=O` (stereo not shown) [Compound 229, 2-[(5Z)-5-({1-[4-Chloro-2-(trifluoromethyl)benzyl]-1H-indazol-5-yl}methylidene)-2,4-dioxo-1,3-thiazolidin-3-yl]-3-(1H-imidazol-4-yl)propanoic acid] registered an EC50 of 76 nM.

The compound `O=C1S/C(=C\c2ccc3c(cnn3Cc3ccc(Cl)cc3C(F)(F)F)c2)C(=O)N1CCN1CC[C@H](O)C1` [Compound 1] showed a concentration for a half-maximal effect (EC50) of 130 nM.

As for `O=C1S/C(=C\c2ccc3c(cnn3Cc3ccc(Cl)cc3C(F)(F)F)c2)C(=O)N1C[C@@H]1CCCN1` [Compound 145, (5Z)-5-({1-[4-Chloro-2-(trifluoromethyl)benzyl]-1H-indazol-5-yl}methylidene)-3-[(2S)-pyrrolidin-2-ylmethyl]-1,3-thiazolidine-2,4-dione], it took 27 nM to reach a half-maximal effect (EC50).

The compound `O=C(O)CCCN1C(=O)S/C(=C\c2ccc3c(cnn3Cc3ccc(Cl)cc3C(F)(F)F)c2)C1=O` [Compound 97, 4-[(5Z)-5-({1-[4-Chloro-2-(trifluoromethyl)benzyl]-1H-indazol-5-yl}methylidene)-2,4-dioxo-1,3-thiazolidin-3-yl]butanoic acid] yielded an EC50 of 47 nM.

`NS(=O)(=O)CN1C(=O)S/C(=C\c2ccc3c(cnn3Cc3ccc(Cl)cc3C(F)(F)F)c2)C1=O` [Compound 165, 1-[(5Z)-5-({1-[4-Chloro-2-(trifluoromethyl)benzyl]-1H-indazol-5-yl}methylidene)-2,4-dioxo-1,3-thiazolidin-3-yl]methanesulfonamide] had an EC50 of 34 nM.

Take `COc1ccc(Cn2ncc3cc(/C=C4\SC(=O)N(CCCN(C)C)C4=O)ccc32)c(C(F)(F)F)c1` [Compound 10, (5Z)-3-[3-(Dimethylamino)propyl]-5-[(1-{[4-(methyloxy)-2-(trifluoromethyl)phenyl]-methyl}-1H-indazol-5-yl)methylidene]-1,3-thiazolidine-2,4-dione]: a half-maximal effect (EC50) was put at 8 nM.

With `CS(=O)(=O)NC(=O)CN1C(=O)S/C(=C\c2ccc3c(cnn3Cc3ccc(F)cc3C(F)(F)F)c2)C1=O` [Compound 185, 2-[(5Z)-5-({1-[4-Fluoro-2-(trifluoromethyl)benzyl]-1H-indazol-5-yl}methylidene)-2,4-dioxo-1,3-thiazolidin-3-yl]-N-(methylsulfonyl)acetamide], a half-maximal effect (EC50) was put at 277 nM. Against the preceding compound, the EC50 is about 35-fold higher.

On to `COC(=O)C(Cc1cccnc1)N1C(=O)S/C(=C\c2ccc3c(cnn3Cc3ccc(Cl)cc3C(F)(F)F)c2)C1=O` (stereo not shown) [Compound 217, Methyl 2-[(5Z)-5-({1-[4-chloro-2-(trifluoromethyl)benzyl]-1H-indazol-5-yl}methylidene)-2,4-dioxo-1,3-thiazilidin-3-yl]-3-pyridin-3-ylpropanoate], for which it took 41 nM to reach a half-maximal effect (EC50).

In turn, `O=C1S/C(=C\c2ccc3c(cnn3Cc3ccc(Cl)cc3C(F)(F)F)c2)C(=O)N1[C@H]1CCNC1` [Compound 114, (5Z)-5-({1-[4-Chloro-2-(trifluoromethyl)benzyl]-1H-indazol-5-yl}methylidene)-3-[(3S)-pyrrolidin-3-yl]-1,3-thiazolidine-2,4-dione] came in with an EC50 of 55 nM.

`[2H]C([2H])([2H])N1CC[C@@H](N2C(=O)S/C(=C\c3ccc4c(cnn4Cc4ccc(C(F)(F)F)cc4C(F)(F)F)c3)C2=O)[C@H](F)C1` (relative stereo) [Compound 330, (5Z)-5-({1-[2,4-Bis(trifluoromethyl)benzyl]-1H-indazol-5-yl}methylidene)-3-[trans-3-fluoro-1-(1,1,1-d3)-methylpiperidin-4-yl]-1,3-thiazolidine-2,4-dione] showed a concentration for a half-maximal effect (EC50) of 91 nM.

As for `CN1CC[C@@H](N2C(=O)S/C(=C\c3ccc4c(cnn4Cc4ccc(C(F)(F)F)cc4C(F)(F)F)c3)C2=O)[C@H](O)C1` (relative stereo) [Compound 276, (5Z)-5-({1-[2,4-Bis(trifluoromethyl)benzyl]-1H-indazol-5-yl}methylidene)-3-[trans-3-hydroxy-l-methylpiperidin-4-yl]-1,3-thiazolidine-2,4-dione], a half-maximal response (EC50) required 29 nM.

Regarding `CC(C)N(CCO)CCN1C(=O)S/C(=C\c2ccc3c(cnn3Cc3ccc(Cl)cc3C(F)(F)F)c2)C1=O` [Compound 45, (5Z)-5-({1-[4-Chloro-2-(trifluoromethyl)benzyl]-1H-indazol-5-yl}methylidene)-3-{2-[(2-hydroxyethyl)(1-methylethyl)amino]ethyl}-1,3-thiazolidine-2,4-dione], the EC50 came to 47 nM.

The compound `CC(C)N1CC[C@@H](N2C(=O)S/C(=C\c3ccc4c(cnn4Cc4ccc(Cl)cc4C(F)(F)F)c3)C2=O)[C@H](F)C1` [Compound 387, (5Z)-5-({1-[4-Chloro-2-(trifluoromethyl)benzyl]-1H-indazol-5-yl}methylidene)-3-[(3R,4R)-3-fluoro-1-(1-methylethyl)piperidin-4-yl]-1,3-thiazolidine-2,4-dione] yielded an EC50 of 123 nM.

`O=C1S/C(=C\c2ccc3c(cnn3Cc3ccc(Cl)cc3C(F)(F)F)c2)C(=O)N1CCNS(=O)(=O)CCl` [Compound 385, 1-Chloro-N-{2-[(5Z)-5-({1-[4-chloro-2-(trifluoromethyl)benzyl]-1H-indazol-5-yl}methylidene)-2,4-dioxo-1,3-thiazolidin-3-yl]ethyl}methanesulfonamide]: the EC50 came out at 39 nM.

Compound `O=C1S/C(=C\c2ccc3c(cnn3Cc3ccc(Cl)cc3C(F)(F)F)c2)C(=O)N1[C@H]1CCNC[C@H]1F` (relative stereo) [Compound 201, (5Z)-5-({1-[4-Chloro-2-(trifluoromethyl)benzyl]-1H-indazol-5-yl}methylidene)-3-(cis-3-fluoropiperidin-4-yl)-1,3-thiazolidine-2,4-dione] showed an EC50 of 61 nM.

Take `O=C1S/C(=C\c2ccc3c(cnn3Cc3ccc(Cl)cc3C(F)(F)F)c2)C(=O)N1CCNCCO` [Compound 52, (5Z)-5-({1-[4-Chloro-2-(trifluoromethyl)benzyl]-1H-indazol-5-yl}methylidene)-3-{2-[(2-hydroxyethyl)amino]ethyl}-1,3-thiazolidine-2,4-dione]: it took 27 nM to reach a half-maximal effect (EC50).

As to `CC(=O)NS(=O)(=O)CN1C(=O)S/C(=C\c2ccc3c(cnn3Cc3ccc(C(F)(F)F)cc3C(F)(F)F)c2)C1=O` [Compound 71, N-({[(5Z)-5-({1-[2,4-Bis(trifluoromethyl)benzyl]-1H-indazol-5-yl}methylidene)-2,4-dioxo-1,3-thiazolidin-3-yl]methyl}sulfonyl)acetamide], the EC50 amounted to 87 nM.

Regarding `CCN1C[C@@H](N2C(=O)S/C(=C\c3ccc4c(cnn4Cc4ccc(Cl)cc4C(F)(F)F)c3)C2=O)[C@@H](F)C1` (relative stereo) [Compound 324, (5Z)-5-({1-[4-Chloro-2-(trifluoromethyl)benzyl]-1H-indazol-5-yl}methylidene)-3-[cis-1-ethyl-4-fluoropyrrolidin-3-yl]-1,3-thiazolidine-2,4-dione], the response was half-maximal at 33 nM (EC50).

The values above are taken from patent publication US8796256B2 (Janssen Pharmaceutica NV, priority 2010, dated 2014).
